In general, melting point refers to the temperature of the solid-liquid transition.

Structures can show the parent of a compound that is named as a salt. Where two headings read alike, the source gives them in different places. Where only a bound is given, the exact number is not on record here.

Data set [1] has as its target T1, [^3H]-dopamine uptake in rat striatal synaptosomes (Rattus norvegicus, UniProt P23977).
T1 construct: a crude synaptosomal fraction (P2) was prepared by homogenization and centrifugation; from tissue; host or cells: rat striatum, crude synaptosomal fraction (P2)
Nature of the data set: In vitro [3H]-dopamine uptake in rat striatal synaptosomes. Type of data set: biochemical.
Procedure: Subsequently, [^3H]-dopamine (2×10^−7 M final concentration) was added and incubation was continued for 10 min. [^3H]-dopamine uptake was stopped by filtration and the synaptosomes were washed four times with phosphate buffered saline. The amount of [^3H]-dopamine in the synaptosomes was determined by Betaplate liquid scintillation counting. […] Inhibition of DA uptake was performed in duplicate.

T1 sequence (P23977 whole entry): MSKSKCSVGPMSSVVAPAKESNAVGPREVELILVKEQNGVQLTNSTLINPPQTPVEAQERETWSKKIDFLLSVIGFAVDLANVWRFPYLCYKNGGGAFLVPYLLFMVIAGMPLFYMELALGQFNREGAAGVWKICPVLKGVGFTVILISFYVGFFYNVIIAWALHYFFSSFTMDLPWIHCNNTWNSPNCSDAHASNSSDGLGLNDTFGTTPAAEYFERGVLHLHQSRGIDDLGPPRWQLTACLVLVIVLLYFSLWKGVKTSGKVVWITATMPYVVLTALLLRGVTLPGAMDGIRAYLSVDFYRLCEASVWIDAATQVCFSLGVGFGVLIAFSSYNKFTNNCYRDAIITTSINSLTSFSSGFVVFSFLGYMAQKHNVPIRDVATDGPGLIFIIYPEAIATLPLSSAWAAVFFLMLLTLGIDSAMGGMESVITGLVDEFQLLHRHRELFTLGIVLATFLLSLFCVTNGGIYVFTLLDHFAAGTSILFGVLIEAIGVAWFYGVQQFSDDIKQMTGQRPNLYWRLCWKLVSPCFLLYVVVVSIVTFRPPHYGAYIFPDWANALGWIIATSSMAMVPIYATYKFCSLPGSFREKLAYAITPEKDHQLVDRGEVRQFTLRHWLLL

Regarding `c1cnc2[nH]c(C3CCCNC3)cc2c1` (centres unmarked), the melting point lay within 144 to 145 °C.
Consider `CN1CCC[C@H]1Cc1cc2cccnc2[nH]1`, for which the melting point lay within 130 to 131 °C.
As for `Clc1ccnc2[nH]c(C3CCCNC3)cc12` (centres unmarked) (as salt: HCl), the melting point is > 250 °C (dec.).
Take `C1=C(c2cc3cccnc3[nH]2)CNCC1` (as salt: HCl) [Compound 25, 2-(1,2,5,6-tetrahydro-pyridin-3-yl)-1H-pyrrolo[2,3-b]pyridine]: the melting point was > 275 °C (dec.).
For the molecule `c1cnc2[nH]cc(C[C@@H]3CCCN3)c2c1` (stereo in doubt) [Compound 97, (S)-3-Pyrrolidin-2-ylmethyl-1H-pyrrolo[2,3-b]pyridine], the IC50 in data set [1] (read-out: Functional activity re-uptake [^3H]-Dopamine pIC50 (converted)) was > 10 µM.
`CN1CCC[C@H]1Cc1c[nH]c2ncccc12` (stereo in doubt) [Compound 99, (S)-3-(1-Methyl-pyrrolidin-2-ylmethyl)-1H-pyrrolo[2,3-b]pyridine]: the IC50 in data set [1] is > 10 µM.
The molecule `c1cnc2[nH]cc(C3CN4CCC3CC4)c2c1` (centres unmarked) [Compound 16, 3-(1H-Pyrrolo[2,3-b]pyridin-3-yl)-1-aza-bicyclo[2.2.2]octane] registered a melting point of 185 °C.
`c1cnc2[nH]c(C3CN4CCC3CC4)cc2c1` (centres unmarked) [Compound 21, 3-(1H-Pyrrolo[2,3-b]pyridin-2-yl)-1-aza-bicyclo[2.2.2]octane] showed a melting point of 190 °C.

The values above are taken from US8252930B2, “Azaindole derivatives with a combination of partial nicotinic acetyl-choline receptor agonism and dopamine reuptake inhibition” (Solvay Pharmaceuticals B.V., priority 2006, dated 2012).
